Reference: patent US20170131285A1, “METHODS AND COMPOSITIONS FOR DIAGNOSING, MONITORING AND TREATING CANCER” (INSERM (Institut National de la Sante et de la Recherche …, priority 2014, published 2017)
Where no end group is shown, it is not given here.

Key:
[1] = target: T1, HSP70/TLR2 association (Homo sapiens, UniProt P0DMV8); assay: In vitro co-immunoprecipitation of TLR2 followed by HSP70 immunoblotting; type: binding; conditions: A8 from 0.3 μM to 1.8 μM, HSP70 immunoblot
T1 construct: HA; made in house; host or cells: cell-free: TNT Quick Coupled Transcription/Translation System (Promega)
T1 sequence (P0DMV8 whole entry): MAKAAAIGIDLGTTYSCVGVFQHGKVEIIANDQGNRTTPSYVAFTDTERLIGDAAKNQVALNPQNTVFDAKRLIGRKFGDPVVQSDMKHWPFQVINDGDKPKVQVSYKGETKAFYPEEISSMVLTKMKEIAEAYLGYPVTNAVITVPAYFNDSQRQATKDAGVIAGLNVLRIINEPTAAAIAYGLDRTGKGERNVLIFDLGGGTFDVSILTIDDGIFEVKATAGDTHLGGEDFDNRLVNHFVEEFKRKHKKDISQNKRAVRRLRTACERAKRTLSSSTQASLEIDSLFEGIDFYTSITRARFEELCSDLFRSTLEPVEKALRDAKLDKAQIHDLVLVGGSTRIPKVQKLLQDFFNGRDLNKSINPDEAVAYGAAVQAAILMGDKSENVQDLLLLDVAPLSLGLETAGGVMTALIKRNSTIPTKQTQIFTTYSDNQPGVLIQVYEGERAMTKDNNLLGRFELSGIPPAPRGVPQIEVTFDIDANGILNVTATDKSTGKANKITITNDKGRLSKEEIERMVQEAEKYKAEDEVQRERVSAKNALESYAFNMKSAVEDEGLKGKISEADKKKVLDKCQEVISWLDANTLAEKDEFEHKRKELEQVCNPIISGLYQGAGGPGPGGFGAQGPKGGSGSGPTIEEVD
Description: (§1) FIG. 3: A8 blocks HSP70/TLR2 association. (A) Immunoprecipitation of TLR2 in the presence of increasing concentrations of A8 (from 0.3 μM to 1.8 μM) was followed by HSP70 immunoblotting. IP control, no relevant IgG antibody. (B) Denatured luciferase (D) was incubated in the absence or presence of human HSP70 and, when indicated, increasing concentrations of A8 (C1=5 μM; C2=15 μM; C3=25 μM and C4=50 μM) for 1 hour at 25° C. Following incubation, the luciferase substrate D-luciferin was added and within 10 minutes the total light units emitted were collected for 10 seconds at 560 nm using a Wallac (Victor 3) spectrophotometer. *, p<0.05. (C) Biolayer interferometry to determine association and dissociation curves of HSP70 (concentration range from 2.5 μM to 156 nM) with biotinylated TRL2 immobilized on streptavidin sensor tips. (D) Association and dissociation curves of HSP70 (concentration range from 50 nM to 1.28 nM) with biotinylated A8 immobilized on streptavidin sensor tips. Curves in C and D represent mean values of triplicate measurements for each concentration.
For the in vitro coimmunoprecipitation, we used A8 or TLR2 recombinants proteins. […] The immunoprecipitated proteins were analysed by western blot.
For the in vitro co-immunoprecipitation, we used A8 or TLR2 recombinants proteins. […] The immunoprecipitated proteins were analyzed by western blot.

[2] = target: T2, human HSP70/HSP40 (Homo sapiens, UniProt P0DMV8); assay: Refolding luciferase assay (HSP70 chaperone activity); type: biochemical; conditions: A8 5 μM to 50 μM, 1 hour at 25° C., purified recombinant proteins
T2 construct: purchased StressGen (EnzoLife)
T2 sequence (P0DMV8 whole entry): as above
Description: as §1, with “concentration. […]” for “concentration.”

[3] = test system: MSC2 cells; assay: IL-6 ELISA in supernatant of MSC2 cells incubated with exosomes; type: cell-based; conditions: exosomes from B16F10, 24 h
Description: FIG. 4: A8 blocks the activation and proliferation of MSC2 cells. (A) IL-6 concentration was determined by ELISA in the supernatant of MSC2 cells incubated or not for 24 h with exosomes (from B16F10) in the presence or absence of A8. *, p<0.05, (n=3). (B) A representative image of a western blot showing the kinetics of STAT3 phosphorylation in MCS2 cells incubated or not with exosomes isolated from B16F10, CT26 or HCT116 cells together with a peptide control (TDE) or A8 (TDE/A8). 14-3-3 is used as a loading control. In the right panels, the amount of pSTAT3 was quantified by densitometric analysis. *, p<0.05, n=4.
MSC2 cells were incubated alone or co-incubated with exosomes from B16F10 cells and/or A8 (during 24 h). Then, the supernatant was collected and centrifuged at 300 g at 4° C. for 5 min and analyzed with IL-6 ELISA assay (BD biosciences) according to the manufacturers' protocol.
Supernatants, collected from MSC2 or MDSC or co-cultured cells incubated alone or with exosomes from B16F10 cells and/or A8 (8 or 16 μM) were analyzed with IL-6, IL-10 and IFN gamma ELISA assay (BD biosciences) according to the manufacturers' protocol.

Sequence: SPWPRPTY [Aptamer A8, SPWPRPTY]
- HSP70 association to TLR2 [1]: inhibited by A8 in a dose-dependent manner
- HSP70 chaperone activity (luciferase refolding) [2]: blocked, in a dose-dependent manner
- IL-6 production by MSC2 stimulated by tumor-derived exosomes [3]: abrogated
